{"source": "patent US6417235B2", "about": "“Method and use of α-amino-β-mercapto-ethane derivatives as dicarbonyl scavengers for treatment of conditions resulting from protein, lipid, and DNA damage” (University of Kentucky Research Foundation, priority 2000, dated 2002)", "tested_on": "glycation of histone H1 by ADP-ribose", "experiment": "Screening of inhibitors of nonoxidative advanced glycation: AGE-fluorescence on 96 well-microtiter plate", "type": "biochemical, calf", "details": "(± SEM, n = 2); for AGE-fluorescence (day 5): complete reaction under air", "experimental": "All operations were carried out at 4° C. Chromatin was isolated from fresh calf thymus by extraction with 0.14 M NaCl, 0.05 M Na2S2O5, as described earlier in Wondrak supra. After repeated extraction with 5% HCl)4 and centrifugation (1500 g), histone H1 was precipitated from the supernatant by addition of TCA (20% final concentration v/v). The histone H1 precipitate was colleted by centrifugation (12,000 g) and deionized water. After extensive dialysis (MW cut-off: 12,000-14,000) against water for 48 h, the sample was lyophilized and the protein was stored at 4° C. SDS-PAGE (12%) was used to analyze the purity of the preparation.\nEarlier studies have reported that D-penicillamine inhibits collagen crosslinking and AGE fluorescence caused by sugars (McPherson, J. D., Shilton, B. H., and Walton, D. J. 1988. Role of Fructose in Glycation and Cross-Linking of Proteins. Biochemistry 27, 1901-1907) and reaction of D-penicillamine with aldehyde groups of proteins (Deshmukh, K., and Nimm, M. E. 1969. A Defect in the Intramolecular and Intermolecular Cross-linking of Collagen caused by Penicillamine. J. Biol. Chem. 244, 1787-1795). A number of different penicillamines and penicillamine derivatives were tested to determine the inhibition of AGE-fluorescence on histone H1 at physiological pH. The reaction conditions for the glycation of histone H1 by ADP-ribose mimic physiological conditions to the extent possible. Reaction mixtures contain 1.5 mg/ml histone Hl, 1.0 mM ADP-ribose, 50 mM potassium phosphate buffer, pH 7.4, 37° C. D,L-penicillamine; L-penicillamine; D-penicllamine; D-penicillaminedisulfide and N,S- isopropylidine-D-penicillamine were tested in concentrations of 1,5 and 10 mM. The detected reaction parameter representing the accumulation of protein damage is AGE-fluorescence ((λex=[…]), which is suppressed by the presence of a compound with inhibitory activity. Generation of AGE-type fluorescence (λex=355 nm; λem=405 nm) was monitored over time at 37° C; which is in the range of the broad excitation/emission maxima of AGE compounds. To allow high throughput sample processing on 96 well microtiter plates, the reaction volumes are 300 μl. Fluorescence on the 96-well microtiter plates was measured using an automated microtiter fluorescence reader. Fluorescence of the 1 ml samples of the glycation reaction mixtures was measured using a Hitachi F-200 fluorescence spectophotometer, and prior to measurement the protein sample is dialyzed extensively against water (MW cutoff=[…]), lyophilized and reconstituted in reaction buffer. For inhibitor screening the plate is read on a Fluoroskan II plate reader (Titertek, ICN) at the excitation/emission wavelengths set forth above at a bandwidth of 35 nm.\nThe following screening scheme is used (see Table 1): AGE-fluorescence is determined at the beginning and after five days of incubation. Test compounds that are inherently fluorescent (designated false negatives) were identified by the initial fluorescence measurement (See Table 1, NADH for example). Since these are compounds of uncertain activity, they are diverted directly to the second stage of the screen. Aminoguanidine, a known glycation inhibitory agent, was used as a positive control for suppression of the increase on AGE-fluorescence. After five days incubation and plate reading, fluorescence quenchers (designated false positives) are excluded by measuring the quenching activity of the test compound by addition of AGE modified protein having known fluorescence activity to one microtiter plate well containing test compound in the complete reaction mixture. For this, AGE-BSA is used as the AGE-type fluorescence standard. This AGE-BSA test excludes false positives compounds that function by fluorescence quenching. If fluorescence quenching occurs the test compound is excluded from further screening. […] The protein is visualized by silver staining of the gel. […]", "data": [{"smiles": "CC(C)(S)[C@@H](N)C(=O)O", "note": "[D-Penicillamine]", "values": [{"measurement": "AGE-fluorescence (day 0)", "setting": "compound 1 mM", "result": "1.2 (0.0) relative units"}, {"measurement": "AGE-fluorescence (day 5)", "setting": "compound 1 mM", "result": "11 (0.6) relative units"}, {"measurement": "AGE-fluorescence (day 0)", "setting": "compound 5 mM", "result": "1.1 (0.1) relative units"}, {"measurement": "AGE-fluorescence (day 5)", "setting": "compound 5 mM", "result": "2.9 (0.3) relative units"}, {"measurement": "AGE-fluorescence (day 0)", "setting": "compound 10 mM", "result": "1.1 (0.0) relative units"}, {"measurement": "AGE-fluorescence (day 5)", "setting": "compound 10 mM", "result": "1.4 (0.1) relative units"}]}]}
